Measured values published in the supplement of paper PMC10307832.

Columns and labels:
Test in all cases: relative viability (nuclei count vs DMSO), 5 days (fraction); higher = more cells survive
[1] = compound: C=CCNC1=C2C[C@@H](C)C[C@H](OC)[C@H](O)[C@@H](C)/C=C(\C)[C@H](OC(N)=O)[C@@H](OC)/C=C\C=C(/C)C(=O)NC(=CC1=O)C2=O [17-AAG] + COc1cc2c(Oc3ccc(NC(=O)C4(C(=O)Nc5ccc(F)cc5)CC4)cc3F)ccnc2cc1OCCCN1CCOCC1 [Foretinib] (partner 0.25 µM)
Summary of the method: (§1)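 Relative viability equals treated-well nuclei counts divided by vehicle-well nuclei counts. Counts came from 4× images of lung cancer cell lines grown in 1536-well plates for 5 days after pin-tool dosing on the day after seeding. Dosing used one drug alone or a fixed anchor-drug dose plus five library-drug doses (not always all listed) in √10 steps, and values are medians of duplicate plates.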

[2] = compound: C=CCNC1=C2C[C@@H](C)C[C@H](OC)[C@H](O)[C@@H](C)/C=C(\C)[C@H](OC(N)=O)[C@@H](OC)/C=C\C=C(/C)C(=O)NC(=CC1=O)C2=O [17-AAG] + CC(C)C[C@H](NC(=O)[C@H](Cc1ccccc1)NC(=O)c1cnccn1)B(O)O [Bortezomib] (partner 0.002 µM)
Summary of the method: as §1

[3] = compound: C=CCNC1=C2C[C@@H](C)C[C@H](OC)[C@H](O)[C@@H](C)/C=C(\C)[C@H](OC(N)=O)[C@@H](OC)/C=C\C=C(/C)C(=O)NC(=CC1=O)C2=O [17-AAG] + CS(=O)(=O)N1CCN(Cc2cc3nc(-c4cccc5[nH]ncc45)nc(N4CCOCC4)c3s2)CC1 [Pictilisib] (partner 1 µM)
Summary of the method: as §1

[4] = compound: C=CCNC1=C2C[C@@H](C)C[C@H](OC)[C@H](O)[C@@H](C)/C=C(\C)[C@H](OC(N)=O)[C@@H](OC)/C=C\C=C(/C)C(=O)NC(=CC1=O)C2=O [17-AAG] + CC(=O)c1c(C)c2cnc(Nc3ccc(N4CCNCC4)cn3)nc2n(C2CCCC2)c1=O [Palbociclib] (partner 0.5 µM)
Summary of the method: as §1

Cell Line	relative viability ([1]; first compound 0.00128 µM)	relative viability ([1]; first compound 0.004048 µM)	relative viability ([1]; first compound 0.0128 µM)	relative viability ([1]; first compound 0.04048 µM)	relative viability ([1]; first compound 0.128 µM)	relative viability ([2]; first compound 0.00128 µM)	relative viability ([2]; first compound 0.004048 µM)	relative viability ([2]; first compound 0.0128 µM)	relative viability ([2]; first compound 0.04048 µM)	relative viability ([2]; first compound 0.128 µM)	relative viability ([3]; first compound 0.00128 µM)	relative viability ([3]; first compound 0.004048 µM)	relative viability ([3]; first compound 0.0128 µM)	relative viability ([3]; first compound 0.04048 µM)	relative viability ([3]; first compound 0.128 µM)	relative viability ([4]; first compound 0.00128 µM)	relative viability ([4]; first compound 0.004048 µM)	relative viability ([4]; first compound 0.0128 µM)	relative viability ([4]; first compound 0.04048 µM)	relative viability ([4]; first compound 0.128 µM)
IA-LM	1.21	1.05	1.19	0.491	0.313	0.886	0.604	0.766	0.326	0.0846	0.325	0.366	0.182	0.0706	0.0517					
LK-2	1.09	1.11	1.21	1.26	0.25						0.725	0.659	0.6	0.208	0.175	0.849	0.64	0.644	0.236	0.0922
NCI-H358	0.669	0.397	0.0697	0.0813	0.0542						0.392	0.219	0.125	0.131	0.126	0.171	0.0944	0.0747	0.0677	0.079
NCI-H522																1.02	1.15	0.896	0.647	0.419
NCI-H596	0.923	0.749	0.923	0.698	0.397	0.991	0.974	1.09	0.994	0.844	0.363	0.304	0.417	0.42	0.253					
